Source: patent publication US10799605B2 (3B PHARMACEUTICALS GMBH, priority 2014, dated 2020)
Where two headings read alike, the source gives them in different places.

Assays:
[1] = molecular target: CB1 (h) (Homo sapiens (Human), UniProt P21554); assay: ExpresSProfile: cannabinoid receptor 1, agonist radioligand; format: binding; details: Reference Compound
[2] = molecular target: AT1 (h) (Homo sapiens (Human), UniProt P30556); assay: ExpresSProfile: angiotensin receptor 1, antagonist radioligand; format: binding; details: Reference Compound
[3] = molecular target: beta 1 (h) (Homo sapiens (Human), UniProt P08588); assay: ExpresSProfile: beta1 adrenergic receptor, agonist radioligand; format: binding; details: Reference Compound
[4] = test system: BZD (central); assay: ExpresSProfile: benzodiazepine, agonist radioligand; format: binding; details: Reference Compound
[5] = molecular target: D2S (h) (Homo sapiens (Human), UniProt P14416); assay: ExpresSProfile: dopamine receptor 2S, antagonist radioligand; format: binding
[6] = molecular target: CXCR2 (IL-8B) (h) (Homo sapiens (Human), UniProt P25025); assay: ExpresSProfile: C-X-C chemokine receptor type 2, agonist radioligand; format: binding; details: Reference Compound
[7] = molecular target: B1R (Homo sapiens (Human), UniProt P46663); assay: Radioligand binding assay B1R (bradykinin B1 receptor); details: read-out: Inhibition [at 100 nM, %]
Description: (§1) In order to determine the binding affinity of compounds comprising a radiolabel for B1R, a radioligand binding assay was carried out. A radioligand is a radioactive biochemical substance that is used for diagnosis or for research-oriented study of cellular receptor systems of the body. In […] systems it is often used to quantify the binding of a test molecule to the binding site of radioligand. The higher the affinity of the molecule, the more radioligand is displaced from the binding site. The amount of bound radioligand can be measured by scintillation counting and thereby quantified. This assay is commonly used to calculate binding constants of molecules to receptors.
The B1R radioligand binding assay was performed by Cerep (Celle l'Evescault, France; Catalog reference 1189) according to (Jones et al., Eur J Pharmacol, 1999, 374, 423-433). B1R was prepared from CHO cells recombinantly expressing the human receptor and incubated with 0.35 nM [^3H]desArg^10-KD and serial dilutions of the test compounds. After 60 min incubation at 4° C. and washing to remove unbound ligand, bound radioactivity was measured by scintillation counting.

[8] = molecular target: T1, NTR1 (Homo sapiens (Human), UniProt P30989); assay: Functional Ca2+ mobilisation assay (example part I); format: cell-based
Source text: Ca^2+ ions are usually kept at nanomolar levels in the cytosol of cells, and act in a number of signal transduction pathways as second messengers. […] Changes in calcium ion concentration in standard assay protocols can be readily detected with fluorescent dyes that emit light when changes in intracellular Ca^2+ ion concentration occur. Given the transient nature of these responses, they are often read with instrumentation that has ‘inject and read’ capability.
HT29 or NTR1-expressing HEK293 cells were trypsinized and seeded into black flat clear-bottom 96-well plates (Corning, Amsterdam, The Netherlands) at […] cells per well. After 24 h incubation at 37° C. and 5% CO2, cells were washed twice with wash buffer (130 mM NaCl, 5 mM KCl, 10 mM Hepes, 2 mM CaCl2, 10 mM Glucose, pH 7.4) and loaded with 100 μl of Ca5 dye (Molecular Devices, Biberach, Germany) for 1 h at 37° C. and 5% CO2. For agonist assays, serial dilutions of agonistic substances were added to the cells loaded with dye and the change of the fluorescent signal was recorded continually for approx. 90 s using a FlexStation II (Molecular Devices, Biberach, Germany). Addition of wash buffer served as a control. Thus, EC50 concentrations for each conjugate were computed and provided a measure for the potency of the substance. For antagonist assays, cells loaded with 100 μl of Ca5-dye were pre-incubated with serial dilutions of antagonistic substances for 30 min, before the EC80-concentration of agonist was added to the cells and the change of the fluorescent signal was recorded continually for approx. 90 s. Thus, IC50 concentrations were computed for each conjugate and provided a measure for the inhibitory activity of the conjugates at the NTR1.

[9] = test system: HT29 cells; details: 48 h
[10] = Plasma stability assay, mouse plasma; format: in vitro ADME
Description: (§2) The plasma stability assay was performed to measure the degradation of compounds of the present invention in plasma. This is an important characteristic of a compound as compounds, with the exception of pro-drugs, which rapidly degrade in plasma generally show poor in vivo efficacy.
(§3) The plasma was spiked with a 10 mM analyte solution in dimethyl sulfoxide to a final concentration of 10 μM, vortexed, and aliquotted to 50 μl samples. Two aliquots were stored at −20° C. until further treatment. Another two aliquots were incubated using an Eppendorf Thermomixer at 37° C. for 1, 4, and 24 hours. Sample clean-up was performed using a protein precipitation plate (Phenomenex Strata Impact, 64722-1-324-1) and using acetonitrile as precipitation agent. […] An aliquot of 10 μl was diluted with 90 μl 0.1% aqueous trifluoroacetic acid solution. The determination of the analyte in the clean sample solutions was performed on a Thermo TSQ Quantum Ultra triple quadrupole mass spectrometer equipped with a thermo Surveyor HPLC. The chromatographic separation was carried out on a Phenomenex Kinetex XB-C18 HPLC column (50×2 mm, […] particle size) with gradient elution using a mixture of 0.01% trifluoroacetic acid and 0.05% formic acid in water as eluent A and methanol as eluent B (20% B to 100% in 8 min, 400 μl/min, 40° C.). For mass spectrometric detection the selected reaction monitoring (SRM) was used.
(§4) Quantitation was performed by external matrix calibration using an internal standard.

[11] = molecular target: T1, NTR1; assay: Functional Ca2+ mobilisation assay (example part II); format: cell-based; details: antagonist assay
Outline: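 HT29 or NTR1-expressing HEK293 cells loaded with Ca5 dye for 1 h at 37 °C in buffer at pH 7.4, and fluorescence recorded for about 90 s after addition. EC50 derived from agonist serial dilutions; IC50 from antagonists pre-incubated 30 min before an EC80 agonist challenge.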

[12] = Plasma stability assay, human plasma; format: in vitro ADME
Description: as §2, §3, §4

[13] = molecular target: T1, NTR1; assay: Radioligand binding assay NTR1 (example part II); details: 0.05 nM 125I-(Tyr3-neurotensin), 60 min at 4° C.; read-out: IC50 [nM] RLB
Description: as §1, with “NTR1,” for “B1R,”
The NTR1 radioligand binding assay was performed by Cerep (Celle l'Evescault, France; Catalog reference 0109) according to Vita et al., FEBS Lett., 1993, 317, 139-142. NTR1 was prepared from CHO cells recombinantly expressing the human receptor and incubated with 0.05 nM ^125I-(Tyr^3-neurotensin) and serial dilutions of the test compounds. […] The result for each test compound is expressed as IC50 concentration and provides a measure for the affinity of the test compound for NTR1.

[14] = in vivo; cited from earlier work
[15] = test system: GABA (non-selective); assay: ExpresSProfile: GABA, agonist radioligand; format: binding; details: Reference Compound
[16] = molecular target: D1 (h) (Homo sapiens (Human), UniProt P21728); assay: ExpresSProfile: dopamine receptor 1, antagonist radioligand; format: binding; details: Reference Compound
[17] = molecular target: B2 (h) (Homo sapiens (Human), UniProt P30411); assay: ExpresSProfile: bradykinin receptor 2, agonist radioligand; format: binding; details: Reference Compound
Chain of B2 (h) (P30411 whole entry): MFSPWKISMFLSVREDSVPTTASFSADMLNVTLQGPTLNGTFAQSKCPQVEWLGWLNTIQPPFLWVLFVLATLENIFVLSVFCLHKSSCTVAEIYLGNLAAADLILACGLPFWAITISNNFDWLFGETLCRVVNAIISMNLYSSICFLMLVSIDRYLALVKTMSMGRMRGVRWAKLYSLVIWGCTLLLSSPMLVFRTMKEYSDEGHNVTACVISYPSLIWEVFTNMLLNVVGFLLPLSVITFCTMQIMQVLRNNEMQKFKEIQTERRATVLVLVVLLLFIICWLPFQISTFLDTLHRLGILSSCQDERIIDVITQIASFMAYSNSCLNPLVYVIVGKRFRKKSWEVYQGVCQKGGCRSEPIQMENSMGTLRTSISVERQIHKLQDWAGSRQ

T1 sequence (P30989 whole entry): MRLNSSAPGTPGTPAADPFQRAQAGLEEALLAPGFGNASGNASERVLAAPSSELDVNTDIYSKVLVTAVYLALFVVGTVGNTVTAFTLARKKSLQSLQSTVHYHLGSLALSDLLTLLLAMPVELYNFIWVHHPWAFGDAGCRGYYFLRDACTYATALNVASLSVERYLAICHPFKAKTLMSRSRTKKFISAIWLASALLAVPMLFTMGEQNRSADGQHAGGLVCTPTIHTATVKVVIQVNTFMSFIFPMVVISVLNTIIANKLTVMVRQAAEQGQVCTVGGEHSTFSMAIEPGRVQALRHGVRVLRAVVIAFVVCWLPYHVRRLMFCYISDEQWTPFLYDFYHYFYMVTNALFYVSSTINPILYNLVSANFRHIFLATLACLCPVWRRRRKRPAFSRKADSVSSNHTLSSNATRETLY
Chain of B1R (P46663 whole entry): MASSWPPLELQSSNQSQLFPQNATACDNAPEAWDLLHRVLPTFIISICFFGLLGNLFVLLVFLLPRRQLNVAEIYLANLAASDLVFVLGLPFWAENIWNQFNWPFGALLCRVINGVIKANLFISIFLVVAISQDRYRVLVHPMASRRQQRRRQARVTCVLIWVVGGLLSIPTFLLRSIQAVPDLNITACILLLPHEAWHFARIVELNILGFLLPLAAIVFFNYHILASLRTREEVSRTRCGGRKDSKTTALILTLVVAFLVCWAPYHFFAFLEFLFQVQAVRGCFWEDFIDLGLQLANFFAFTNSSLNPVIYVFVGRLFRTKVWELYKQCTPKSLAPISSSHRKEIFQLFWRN
Chain of D2S (h) (P14416 other isoform, or with tags, fused parts or gaps): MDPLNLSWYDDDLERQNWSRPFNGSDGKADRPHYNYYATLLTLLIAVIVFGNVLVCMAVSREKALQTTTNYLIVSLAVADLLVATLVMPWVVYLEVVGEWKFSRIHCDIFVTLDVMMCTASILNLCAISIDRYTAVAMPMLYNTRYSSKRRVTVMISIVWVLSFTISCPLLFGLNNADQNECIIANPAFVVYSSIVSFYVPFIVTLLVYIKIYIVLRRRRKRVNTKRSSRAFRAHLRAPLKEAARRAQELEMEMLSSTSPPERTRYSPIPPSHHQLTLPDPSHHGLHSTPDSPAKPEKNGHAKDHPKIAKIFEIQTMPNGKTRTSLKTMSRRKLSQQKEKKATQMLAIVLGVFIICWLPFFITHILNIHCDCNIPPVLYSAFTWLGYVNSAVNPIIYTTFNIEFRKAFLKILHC
Chain of CB1 (h) (P21554 whole entry): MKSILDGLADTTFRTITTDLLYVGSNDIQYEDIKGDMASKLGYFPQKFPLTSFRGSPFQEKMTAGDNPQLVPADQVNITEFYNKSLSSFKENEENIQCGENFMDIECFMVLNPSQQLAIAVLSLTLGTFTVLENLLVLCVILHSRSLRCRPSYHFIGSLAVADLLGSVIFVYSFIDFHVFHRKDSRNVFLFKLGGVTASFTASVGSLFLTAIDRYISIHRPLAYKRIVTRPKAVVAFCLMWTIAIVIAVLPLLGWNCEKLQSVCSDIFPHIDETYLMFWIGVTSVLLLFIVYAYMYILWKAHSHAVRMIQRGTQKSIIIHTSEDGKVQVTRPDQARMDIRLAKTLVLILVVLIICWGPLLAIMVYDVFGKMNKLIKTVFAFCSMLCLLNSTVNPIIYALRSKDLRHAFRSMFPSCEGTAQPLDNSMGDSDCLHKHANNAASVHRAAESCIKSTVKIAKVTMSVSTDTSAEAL
Chain of CXCR2 (IL-8B) (h) (P25025 whole entry): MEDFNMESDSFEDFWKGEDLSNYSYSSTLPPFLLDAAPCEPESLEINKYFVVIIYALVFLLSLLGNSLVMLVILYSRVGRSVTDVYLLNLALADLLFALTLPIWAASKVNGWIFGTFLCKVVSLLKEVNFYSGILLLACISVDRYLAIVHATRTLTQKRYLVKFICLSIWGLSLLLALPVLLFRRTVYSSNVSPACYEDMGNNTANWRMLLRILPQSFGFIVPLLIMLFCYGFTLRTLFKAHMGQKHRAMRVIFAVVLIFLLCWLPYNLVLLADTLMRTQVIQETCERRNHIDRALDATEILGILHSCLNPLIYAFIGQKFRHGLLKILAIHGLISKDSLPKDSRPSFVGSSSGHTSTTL
Chain of beta 1 (h) (P08588 whole entry): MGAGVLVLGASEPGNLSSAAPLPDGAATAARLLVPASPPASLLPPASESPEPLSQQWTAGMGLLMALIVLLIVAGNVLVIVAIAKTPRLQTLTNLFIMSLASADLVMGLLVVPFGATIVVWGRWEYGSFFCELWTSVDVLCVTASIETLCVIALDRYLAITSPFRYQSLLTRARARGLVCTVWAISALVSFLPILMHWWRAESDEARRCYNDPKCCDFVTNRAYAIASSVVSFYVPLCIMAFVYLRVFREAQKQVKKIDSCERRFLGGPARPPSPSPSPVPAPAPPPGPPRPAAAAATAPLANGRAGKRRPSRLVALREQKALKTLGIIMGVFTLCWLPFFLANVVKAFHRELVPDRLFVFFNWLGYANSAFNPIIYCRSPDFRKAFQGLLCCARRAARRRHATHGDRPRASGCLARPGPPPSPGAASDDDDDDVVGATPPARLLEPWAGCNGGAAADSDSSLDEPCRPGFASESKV
Chain of AT1 (h) (P30556 whole entry): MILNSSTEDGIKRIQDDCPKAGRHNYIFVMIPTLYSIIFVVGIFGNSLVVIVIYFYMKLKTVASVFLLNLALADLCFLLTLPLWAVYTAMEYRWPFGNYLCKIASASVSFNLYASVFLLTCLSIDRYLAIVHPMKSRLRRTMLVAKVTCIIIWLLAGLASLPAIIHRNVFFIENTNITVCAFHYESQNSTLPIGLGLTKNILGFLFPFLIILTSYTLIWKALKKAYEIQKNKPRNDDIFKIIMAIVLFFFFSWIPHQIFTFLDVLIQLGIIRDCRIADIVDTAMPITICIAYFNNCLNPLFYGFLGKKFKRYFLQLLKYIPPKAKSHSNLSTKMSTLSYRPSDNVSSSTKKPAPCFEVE
Chain of D1 (h) (P21728 whole entry): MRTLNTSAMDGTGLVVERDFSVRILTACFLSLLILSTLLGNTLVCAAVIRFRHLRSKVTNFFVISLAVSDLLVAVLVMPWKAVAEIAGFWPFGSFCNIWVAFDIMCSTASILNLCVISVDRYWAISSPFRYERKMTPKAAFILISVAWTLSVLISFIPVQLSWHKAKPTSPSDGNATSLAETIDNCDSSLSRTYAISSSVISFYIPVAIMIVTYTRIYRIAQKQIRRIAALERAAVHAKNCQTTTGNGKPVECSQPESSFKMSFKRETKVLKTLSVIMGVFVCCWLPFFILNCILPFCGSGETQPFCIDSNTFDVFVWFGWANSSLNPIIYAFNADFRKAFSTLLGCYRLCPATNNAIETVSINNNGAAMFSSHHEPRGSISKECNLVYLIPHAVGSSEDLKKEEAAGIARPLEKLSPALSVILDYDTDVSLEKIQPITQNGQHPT

## CCCCCCC(C)(C)c1ccc([C@@H]2C[C@H](O)CC[C@H]2CCCO)c(O)c1 [CP 55940]
[1]
  nH Ref: 0.8

## CNCC(=O)N[C@@H](CCCN=C(N)N)C(=O)N[C@H](C(=O)N[C@@H](Cc1ccc(O)cc1)C(=O)N[C@H](C(=O)N[C@@H](Cc1cnc[nH]1)C(=O)N1CCC[C@H]1C(=O)N[C@@H](C)C(=O)O)C(C)C)C(C)C [saralasin]
[2]
  nH Ref: 0.6

## CC(C)NCC(O)COc1ccc(CC(N)=O)cc1 (stereo not shown) [atenolol]
[3]
  nH Ref: 0.9

## CN1C(=O)CN=C(c2ccccc2)c2cc(Cl)ccc21 [diazepam]
[4]
  nH Ref: 1.1

## (+)butaclamol
[5]
  nH Ref: 1.0

## IL-8
[6]
  nH Ref: 1.4

## CC[C@H](C)[C@H](NC(=O)[C@@H](Cc1ccc2ccccc2c1)NC(=O)[C@H](CO)NC(=O)[C@](C)(Cc1ccccc1)NC(=O)CNC(=O)[C@@H]1CCCN1C(=O)[C@@H]1C[C@@H]2CCCC[C@@H]2N1C(=O)[C@H](CCCNC(=N)N)NC(=O)[C@H](CCCN)NC(=O)CCC(=O)NCCCOCCOCCOCCCNC(=O)[C@H](CCCCNC(=O)CN1CCN(CC(=O)O)CCN(CC(=O)O)CCN(CC(=O)O)CC1)NC(=O)CCC(=O)NCCCOCCOCCOCCCNC(=O)CCCC(=O)N(C)CCCN(C)CCCN(C)C(=O)c1ccc(-n2nc(C(=O)NC3(C(=O)O)C4CC5CC(C4)CC3C5)cc2-c2c(OC)cccc2OC)c(C(C)C)c1)C(=O)O (stereo partly drawn) [(27), 1206-Glutar-Ttds-Lys(DOTA)-Ttds-GABA-Orn-Arg-Oic-Pro-Gly-Amf-Ser-nal-Ile-OH]
[7]
  inhibition at 0.1 µM: 17%

## COc1cccc(OC)c1-c1cc(C(=O)NC2(C(=O)O)C3CC4CC(C3)CC2C4)nn1-c1ccc(C(=O)N(C)CCCN(C)CCCN(C)C(=O)CCCC(=O)NCCCCC(NC(=O)CCC(=O)NCCCOCCOCCOCCCNC(=O)C(CCCCNC(=O)CCC(=O)O[C@@H](C(=O)O[C@H]2C[C@@]3(O)[C@@H](OC(=O)c4ccccc4)[C@@H]4[C@]5(OC(C)=O)CO[C@@H]5C[C@H](O)[C@@]4(C)C(=O)[C@H](OC(C)=O)C(=C2C)C3(C)C)[C@@H](NC(=O)c2ccccc2)c2ccccc2)NC(=O)CCC(=O)NCCCOCCOCCOCCCNC(=O)CCCC(=O)N(C)CCCN(C)CCCN(C)C(=O)c2ccc(-n3nc(C(=O)NC4(C(=O)O)C5CC6CC(C5)CC4C6)cc3-c3c(OC)cccc3OC)c(C(C)C)c2)C(N)=O)cc1C(C)C (stereo partly shown) [(20), 1206-Glutar-Ttds-Lys(Taxol-Succinyl)-Ttds-(ε-Lys-NH2)-Glutar-1206]
[8]
  EC50: > 50000 nM
  IC50: 32 nM
[9]; HT29 cells, LDH in supernatant
  Concentration [μM] at 20% cytotoxicity: 18 µM

## CC(=O)O[C@H]1C(=O)[C@@]2(C)[C@H]([C@H](OC(=O)c3ccccc3)[C@]3(O)C[C@H](OC(=O)[C@H](O)[C@@H](NC(=O)c4ccccc4)c4ccccc4)C(C)=C1C3(C)C)[C@]1(OC(C)=O)CO[C@@H]1C[C@@H]2O [Paclitaxel, reference compound]
[9]; human
  Concentration [μM] at 20% cytotoxicity: 70 µM

## COc1cccc(OC)c1-c1cc(C(=O)NC2(C(=O)O)C3CC4CC(C3)CC2C4)nn1-c1ccc(C(=O)N(CCCNC(=O)CN2CCN(CC(=O)O)CCN(CC(=O)O)CCN(CC(=O)O)CC2)CCCN(C)C)cc1C(C)C (stereo not shown) [(Va), 2-{[1-{4-[(3-DOTA-amino-propyl)-(3-dimethylamino-propyl)-carbamoyl]-2-isopropyl-phenyl}-5-(2,6-dimethoxy-phenyl)-1H-pyrazole-3-carbonyl]-amino}-adamantane-2-carboxylic acid]
[10]
  stability in mouse plasma: highly stable
[10]; 10 μM, 37° C., 24 h
  % remaining after 24 h incubation, Mouse plasma: >60%
[11]
  IC50: 12.6 nM
[12]
  stability in human plasma: highly stable
[12]; 10 μM, 37° C., 24 h
  % remaining after 24 h incubation, Human plasma: >70%
[13]
  IC50: 3.4 nM

## COc1cccc(OC)c1-c1cc(C(=O)NC2(C(=O)O)C3CC4CC(C3)CC2C4)nn1-c1ccc(C(=O)N(C)CCCN(C)C)cc1C(C)C (stereo not shown) [SR142948, 2-[(5-(2,6-Dimethoxy-phenyl)-1-{4-[(3-dimethylamino-propyl)-methyl-carbamoyl]-2-isopropyl-phenyl}-1H-pyrazole-3-carbonyl)-amino]-adamantane-2-carboxylic acid]
[14]
  blood-brain barrier crossing: cross the blood-brain barrier

## NCCCC(=O)O [GABA, γ-aminobutyric acid, reference compound]
[15]
  nH Ref: 0.8

## COc1cccc(OC)c1-c1cc(C(=O)NC2(C(=O)O)C3CC4CC(C3)CC2C4)nn1-c1ccc(C(=O)N(C)CCCN(C)CCCN(C)C(=O)CCCC(=O)NCCCOCCOCCOCCCNC(=O)CCC(=O)N[C@@H](CCCCNC(=O)CN2CCN(CC(=O)O)CCN(CC(=O)O)CCN(CC(=O)O)CC2)C(=O)NCCCOCCOCCOCCCNC(=O)CCC(=O)N[C@@H](CCCCN)C(=O)N[C@@H](CCCNC(=N)N)C(=O)N2CCC[C@H]2C(=O)N2C[C@H](O)C[C@H]2C(=O)NCC(=O)N[C@@H](CC2CCCCC2)C(=O)N[C@@H](CO)C(=O)N2CCC[C@H]2C(=O)N[C@@H](CC(C)C)C(=O)O)cc1C(C)C (stereo partly drawn) [(26), 1206-Glutar-Ttds-Lys(DOTA)-Ttds-GABA-Lys-Arg-Pro-Hyp-Gly-Cha-Ser-Pro-Leu-OH]
[7]
  inhibition at 0.1 µM: 20%

## CN1CCc2cc(Cl)c(O)cc2[C@@H](c2ccccc2)C1 [SCH 23390]
[16]
  nH Ref: 0.9

## N=C(N)NCCC[C@@H](N)C(=O)N[C@@H](CCCNC(=N)N)C(=O)N1CCC[C@H]1C(=O)N1C[C@H](O)C[C@H]1C(=O)NCC(=O)N[C@@H](Cc1ccccc1)C(=O)N[C@@H](CO)C(=O)N[C@H](Cc1ccccc1)C(=O)N[C@@H](Cc1ccccc1)C(=O)N[C@@H](CCCNC(=N)N)C(=O)O [NPC 567]
[17]
  nH Ref: 0.9
